Columns and labels:
hERG channel = molecular target: T1, hERG channel (Homo sapiens, UniProt Q12809); assay: Cardiotoxicity fluorescence-based assay, hERG channel; format: cell-based; conditions: HEK293 cells
T1 construct: expressed in transfected cells; host or cells: HEK293
Method: Fluorescence-based assays were performed using HEK293 cell lines that stably express the Nav1.5-channel, Cav1.2-channel or hERG K+-channel, using FMP Red Dye (Molecular Devices), calcium-sensitive fluorescent dye Fluo-4 (Invitrogen) and FIuxOR™ reagent (Invitrogen), respectively, and a FLIPR Tetra High-Throughput Cellular Screening System (Molecular Devices), according to manufacturer's protocols (Molecular Devices). Tetrodotoxin (TTX), israpidine and nicarpidine, and astemizole and haloperidol were used as standard sodium channel, calcium channel, and hERG channel blockers. Data were analyzed using Genedata Screener.

CYP2C9 = molecular target: T2, CYP2C9 (Homo sapiens, UniProt P11712); assay: CYP450 enzyme inhibition assay, CYP2C9; format: in vitro ADME; conditions: human liver microsomes; for IC50: diclofenac probe
T2 construct: containing Human Liver Microsomes (HLM) (0.5 mg/mL); from tissue; host or cells: human liver microsomes
Method: (§1) Protocol was based on literature [Perez-Del Palacio et al. (2017) Front Pharmacol 8, 202]. Assessment of CYP450 inhibition was conducted in 96-well plate format at 37° C. Test compounds were dissolved in DMSO/acetonitrile (2 μL) and diluted in 98 μL NADPH solution (2 mM). Reactions were started by addition of 100 μL potassium phosphate buffer (200 mM, pH 7.4) containing Human Liver Microsomes (HLM) (0.5 mg/mL). Probe reactions for CYP3A4, CYP2D6 and CYP2C9 were conducted with 50 μM testosterone, 22 μM dextromethorphan and 10 μM diclofenac for 15 min. Reactions were terminated with the addition of a quench solution (90 μL) of acetonitrile containing internal standards for LC-MS/MS determination (60 ppb cortisone, 100 ppb 4′-hydroxydiclofenac 13C6, 60 ppb levallorphan).

[1] = Parallel artificial membrane permeability assay (PAMPA); format: in vitro ADME; conditions: for Permeability: 10 μM, 5 h, RT
Method: The Gentest Pre-coated PAMPA Plate System (Corning) was used to perform the permeability assays. The 96 well filter plate, pre-coated with lipids, was used as the permeation acceptor and a matching 96 well receiver plate was used as the permeation donor. Compound solutions were prepared by diluting 10 mM DMSO stock solutions in PBS with a final concentration at 10 μM. The compound solutions were added to the wells (300 μL/well) of the receiver plate and PBS was added to the wells (200 μL/well) of the pre-coated filter plate. The filter plate was then coupled with the receiver plate and the plate assembly was incubated at RT without agitation for 5 h. Next, the plates were separated and 50 μL solution from each well of both the filter plate and the receiver plate was transferred to a vial with 150 μL acetonitrile and centrifuged at 13300 rpm for 10 min at 4° C. The supernatant was diluted in a solution water/acetonitrile (50/50). The final concentration of compounds in both donor wells and acceptor wells was analyzed by LC-MS/MS. Permeability of the compounds was calculated using the following equation:
Permeability (cm/s): Pe={−ln[1−CA(t)/Ceq]}/[A*(1/VD+1/VA)*t]}
A=filter area (0.3 cm2), VD=donor well volume (0.3 mL), VA=acceptor well volume (0.2 mL), t=incubation time (s), CA(t)=compound concentration in acceptor well at time t, CD(t)=compound concentration in donor well at time t, and Ceq=[CD(t)*VD+CA(t)*VA]/(VD+VA)]

[2] = tested on: PTZ-induced seizures in zebrafish larvae; assay: Zebrafish PTZ seizure model, behavioral analysis; format: in vivo, Danio rerio; conditions: for PTZ-induced seizures (seizure-like behavior): vs VHC+PTZ
Method: To investigate whether the isolated compounds display antiseizure activity, they were tested in the zebrafish PTZ seizure model after both an acute (2 hours) and chronic (18 hours) incubation time at their maximum tolerated concentration (MTC) (Table 1, FIG. 1).
(§2) In case no MTC was reached, 100 μg/mL was used as the test concentration. In line with studies previously reported [Baraban et al. (2005) Neurosci 131, 759-768; Afrikanova et al. (2013) PLoS One 8, e54166], addition of the GABAA-receptor antagonist PTZ to the swimming water of 7 days post-fertilization (dpf) zebrafish larvae strongly elevated larval locomotion (p≤0.001) (FIGS. 2 and 3) as a result of induced seizures (or seizure-like behavior) that were recognized as typical high-speed swimming, whirlpool-like circling, clonus-like seizures, and loss of posture, as previously described in Baraban et al cited above.
Experimental procedure was described in Afrikanova et al.(2013) PLoS One 8, e54166 and Orellana-Paucar et al. (2012) Epilepsy Behav 24, 14-22. In brief, a single 7 dpf larva (in case of 2 hours incubation) or 6 dpf larva (in case of 18 hours incubation) was placed in each well of a 96-well plate and treated with either VHC (1% DMSO) or compound (1% DMSO) in a 100 μL volume. Larvae were incubated in dark for 2 or 18 hours at 28° C., whereafter 100 μL of either VHC (embryo medium) or 40 mM PTZ (dissolved in embryo medium, 20 mM working concentration) was added to each well. Next, within 5 min the 96-well plate was placed in an automated tracking device (ZebraBox Viewpoint, France) and larval behavior was video recorded for 30 min. The complete procedure was performed in dark conditions using infrared light. Total locomotor activity was recorded by ZebraLab software (Viewpoint, France) and expressed in actinteg units, which is the sum of pixel changes detected during the defined time interval (5 min). Larval behavior was depicted as mean actinteg units/5 min during the 30 min recording period and over 5 min time intervals. Data are expressed as mean±SD or as mean ±SEM when the means of independent experiments were pooled.

CYP2D6 = molecular target: T3, CYP2D6 (Homo sapiens, UniProt P10635); assay: CYP450 enzyme inhibition assay, CYP2D6; format: in vitro ADME; conditions: human liver microsomes; for IC50: dextromethorphan probe
T3 construct: containing Human Liver Microsomes (HLM) (0.5 mg/mL); from tissue; host or cells: human liver microsomes
Method: as §1

zebrafish larvae = assay: Zebrafish toxicity evaluation (maximum tolerated concentration); format: in vivo, Danio rerio; conditions: up to 18 hours exposure, 100 μg/mL used where no MTC was reached
Method: as §2
Maximum tolerated concentration (MTC) was determined prior to further experiments and used as the highest test concentration. MTC was investigated by exposing 12 larvae of 6 days post-fertilization (dpf) to a range of concentrations in a 100 μL volume during 18 hours. The following parameters were investigated after 2 and 18 hours of exposure: touch response, morphology, posture, edema, signs of necrosis, swim bladder, and heartbeat. […] In case MTC was not reached, 100 μg/mL was used as the highest test concentration.

T1 sequence (Q12809 whole entry): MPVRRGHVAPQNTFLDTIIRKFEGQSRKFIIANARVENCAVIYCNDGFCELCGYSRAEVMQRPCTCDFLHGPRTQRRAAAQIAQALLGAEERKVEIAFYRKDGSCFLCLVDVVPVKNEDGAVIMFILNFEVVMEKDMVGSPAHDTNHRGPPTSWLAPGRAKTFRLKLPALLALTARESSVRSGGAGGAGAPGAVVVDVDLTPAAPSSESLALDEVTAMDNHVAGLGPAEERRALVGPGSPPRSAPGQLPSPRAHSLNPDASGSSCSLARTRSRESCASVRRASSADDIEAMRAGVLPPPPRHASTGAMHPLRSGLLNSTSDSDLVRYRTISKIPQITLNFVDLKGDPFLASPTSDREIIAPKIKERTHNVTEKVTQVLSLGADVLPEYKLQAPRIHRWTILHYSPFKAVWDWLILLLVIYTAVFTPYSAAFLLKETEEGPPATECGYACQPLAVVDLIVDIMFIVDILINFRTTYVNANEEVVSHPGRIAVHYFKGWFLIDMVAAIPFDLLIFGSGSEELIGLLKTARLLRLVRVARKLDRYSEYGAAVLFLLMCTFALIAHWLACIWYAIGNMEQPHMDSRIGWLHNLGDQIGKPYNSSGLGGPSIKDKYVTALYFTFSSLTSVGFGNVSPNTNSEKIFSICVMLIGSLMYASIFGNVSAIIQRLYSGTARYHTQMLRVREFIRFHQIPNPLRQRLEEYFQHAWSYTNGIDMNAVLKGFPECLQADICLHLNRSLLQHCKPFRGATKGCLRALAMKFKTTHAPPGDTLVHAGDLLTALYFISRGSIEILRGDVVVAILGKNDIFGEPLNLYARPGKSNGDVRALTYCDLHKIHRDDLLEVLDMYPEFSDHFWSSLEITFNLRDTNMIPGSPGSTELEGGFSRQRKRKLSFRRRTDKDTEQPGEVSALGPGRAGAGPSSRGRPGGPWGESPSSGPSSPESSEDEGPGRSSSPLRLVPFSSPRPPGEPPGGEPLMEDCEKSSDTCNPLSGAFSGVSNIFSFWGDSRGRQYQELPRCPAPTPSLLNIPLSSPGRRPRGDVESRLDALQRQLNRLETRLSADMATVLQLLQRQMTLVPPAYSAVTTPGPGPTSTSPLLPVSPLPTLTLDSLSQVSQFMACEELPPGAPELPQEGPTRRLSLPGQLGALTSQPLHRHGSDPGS
T2 sequence (P11712 whole entry): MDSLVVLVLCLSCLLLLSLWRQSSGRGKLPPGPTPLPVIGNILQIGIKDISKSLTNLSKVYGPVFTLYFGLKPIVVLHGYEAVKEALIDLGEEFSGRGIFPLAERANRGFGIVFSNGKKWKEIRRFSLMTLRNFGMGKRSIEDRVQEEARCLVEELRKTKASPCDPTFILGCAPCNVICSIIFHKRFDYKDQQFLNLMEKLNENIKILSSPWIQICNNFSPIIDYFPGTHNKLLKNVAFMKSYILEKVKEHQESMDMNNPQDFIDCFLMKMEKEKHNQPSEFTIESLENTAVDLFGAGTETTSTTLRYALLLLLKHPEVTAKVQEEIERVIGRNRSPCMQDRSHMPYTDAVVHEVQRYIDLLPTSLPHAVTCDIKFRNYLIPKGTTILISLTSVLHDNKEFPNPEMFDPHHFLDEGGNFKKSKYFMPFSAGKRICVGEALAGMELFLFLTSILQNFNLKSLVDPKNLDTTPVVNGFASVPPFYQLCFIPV
T3 sequence (P10635 whole entry): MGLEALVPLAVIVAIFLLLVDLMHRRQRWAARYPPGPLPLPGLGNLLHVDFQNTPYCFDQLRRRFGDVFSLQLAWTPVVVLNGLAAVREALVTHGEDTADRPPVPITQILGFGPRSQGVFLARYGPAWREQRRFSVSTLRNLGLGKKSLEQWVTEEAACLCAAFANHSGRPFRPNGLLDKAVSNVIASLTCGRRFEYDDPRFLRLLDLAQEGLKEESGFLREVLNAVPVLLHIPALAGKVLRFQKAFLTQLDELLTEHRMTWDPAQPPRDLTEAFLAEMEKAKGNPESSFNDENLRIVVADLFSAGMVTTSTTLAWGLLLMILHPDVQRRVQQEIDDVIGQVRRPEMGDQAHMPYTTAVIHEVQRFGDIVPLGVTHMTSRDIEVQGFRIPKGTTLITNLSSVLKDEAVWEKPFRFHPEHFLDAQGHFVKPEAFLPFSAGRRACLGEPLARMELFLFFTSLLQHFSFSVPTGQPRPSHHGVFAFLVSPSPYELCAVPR

## CCc1ccc(C2=C(C)C(=O)C3(O2)C(=O)NC(OC)(C(=O)c2ccccc2)C3O)o1 (stereo not shown) [azaspirofuran A]
hERG channel
  Cardiotoxicity hERG channel, effect: No effect
  IC50: > 50 µM
CYP2C9
  CYP2C9, effect: Weak
  IC50: 47.3 µM
[1]
  Permeability, rating: High
  Permeability: 18.64 ×10⁻⁶ cm/s
[2]; at MTC, 2 hours incubation, 30 min recording, three independent experiments
  PTZ-induced seizure behavior, concentration-response retest: lowered PTZ-induced seizure behavior to the same extent as before
[2]; at MTC, 2 hours of compound exposure
  PTZ-induced seizures (seizure-like behavior): significantly lowered PTZ-induced seizures
CYP2D6
  CYP2D6, effect: Weak
  IC50: 23.4 µM
Zebrafish larvae
  MTC (maximum tolerated concentration): 12.5 µg/mL

## CC/C=C\[C@H](O)[C@H](O)C1=C(C)C(=O)[C@]2(O1)C(=O)N[C@](OC)(C(=O)c1ccccc1)[C@H]2O [pseurotin A2]
hERG channel
  Cardiotoxicity hERG channel, effect: No effect
  IC50: > 50 µM
CYP2C9
  CYP2C9, effect: No effect
  IC50: > 88 µM
[1]
  Permeability, rating: Low
  Permeability: 0.05 ×10⁻⁶ cm/s
[2]; MTC, MTC/2, MTC/4, optimal incubation time, 30 min recording and 5 min intervals
  PTZ-induced seizure behavior, concentration-response retest: concentration-dependent activity
[2]; at MTC, 18 hours of compound exposure
  PTZ-induced seizures (seizure-like behavior): significantly lowered PTZ-induced seizures
CYP2D6
  CYP2D6, effect: No effect
  IC50: > 88 µM
Zebrafish larvae
  MTC (maximum tolerated concentration): 12.5 µg/mL

Source: US20200253929A1, “TREATMENT OF EPILEPSY” (priority 2017, published 2020)
